Key:
Lewis lung carcinoma = Lewis lung carcinoma metastatic model in C57BL/6 mice; format: in vivo; conditions: for Activity: weight gain of lung: 100 mg/kg/day, treatment from day three, vehicle 0.40 g
Description: (§1) Antitumor activity has been evaluated for the S(−) and the R(+)4-amino-thalidomide enantiomers as follows. For the HsS cell line, 2 million cells are injected into the tail vein of 8 week old, female, SCID mice. Treatment is initiated after two weeks and continued daily until the mice die or show hind limb paralysis. Results are expressed as mean time to death in treated versus control animals. For the Lewis lung model, 2.5×10(5) cells are injected intravenously into the tail vein of 6-8 week old, male, C57BL/6 mice and treatment is initiated on day three. The time period of treatment is usually 11-15 days in duration. After sacrifice by CO^2 asphyxiation, lungs (where tumors seed and grow) are removed, rinsed in water, patted dry, and weighed. Mean lung weights of age-matched, non-tumor bearing mice are subtracted from the weight of treated, tumor-bearing mice with results expressed as lung weight gain in treated versus control animals. Table 1 summarizes data from in vivo experiments in lung and plasma cell tumor metastatic tumor systems, comparing the antitumor activity of the three enantiomeric preparations of 4-amino thalidomide.

HsSultan B-cell lymphoma = HsSultan B-cell lymphoma metastatic model in SCID mice; format: in vivo; conditions: for Activity: mean time to death: daily from two weeks after i.v. cell injection, vehicle 26 days
Description: as §1

HS-Sultan cells = assay: XTT proliferation assay with HS-Sultan cells; format: cell-based; conditions: 72 hour treatment, FIG. 1
Source text: The Roche Cell Proliferation Kit II (XTT) is an useful assay for screening the relative efficacy of small molecules. The assay quantitatively determines cellular proliferation in response to agonists and/or antagonists of proliferation. It is based on the cleavage of the yellow tetrazolium salt (XTT) by metabolically active/viable cells to form an orange formazan dye. The formation of the soluble dye allows direct quantification using a scanning mulitwell spectrophotometer. An increase in the number of living cells (resulting from proliferation) results in a greater production of formazan dye which corresponds to an increase in the absorbance value.
When evaluating analogs of thalidomide, or the like, we have employed HS-Sultan cells in an in vitro XTT assay. […] When the treatment/labeling period is complete, the plate is read on a spectrophotometric plate reader at a wavelength of 470 nm and a 650 nm reference wavelength. For individual experiments, the average absorbance values (with background subtracted) for each treatment are plotted against the concentration. A larger absorbance value corresponds to a greater amount of proliferation. A negative control (untreated cells) is used as a point of reference; an absorbance value less than the control reflects inhibition of proliferation. […]

[1] = system: VEGF induced neovascularization; assay: Corneal micropocket assay, VEGF pellet; format: in vivo, C57BL/6J mice; conditions: 50 mg/kg i.p. daily for six days, n=9 each, P<0.001, FIG. 2
Description: (§2) A corneal micropocket assay was performed as described in Kenyon, et al., A Model of Angiogenesis in the Mouse Cornea, Invest. Ophtalmol. & Vis. Sci., 37, 1625-1632 (1996), which is incorporated herein in its entirety. Pellets were used containing 80 ng of bFGF or human recombinat VEGF (R&D Systems, Minneapolis, Minn.) in C57BL/6J mice. […] Differences in VEGF induced neovascularization between S(−)-3APG and control were significant (n=9 each, P<0.001), as were differences between S(−)-3APG and thalidomide (n=9 each, P<0.01).

[2] = system: bFGF induced neovascularization; assay: Corneal micropocket assay, bFGF pellet; format: in vivo, C57BL/6J mice; conditions: 50 mg/kg i.p. daily for five days, n=9 each, P<0.0001, FIG. 2
Description: as §2

Which “Activity: weight gain of lung” value (Lewis lung carcinoma) does the source give for `Nc1cccc2c1C(=O)N(C1CCC(=O)NC1=O)C2=O` (stereo not drawn) [R, S, 4-amino-thalidomide] here?
Its value is 0.27 g.

What about the “Activity: mean time to death” value (HsSultan B-cell lymphoma; 50 mg/kg/day) of the same compound?
The value was 41 days.

And the “Activity: mean time to death” value (HsSultan B-cell lymphoma; 200 mg/kg/day)?
The value was 28 days.

What does the source list for `Nc1cccc2c1C(=O)N([C@H]1CCC(=O)NC1=O)C2=O` [S(−)-4-amino-thalidomide, S(−)-4-Amino-thalidomide]?
anti-cellular proliferation activity (XTT, treatment over control) (HS-Sultan cells): show anti-cellular proliferation activity; difference in VEGF induced neovascularization versus control [1]: significant; Activity: weight gain of lung (Lewis lung carcinoma): 0.17 g; antitumor activity compared among the enantiomeric preparations of 4-amino thalidomide (Lewis lung carcinoma; summary of Table 1): most active enantiomer; Activity: mean time to death (HsSultan B-cell lymphoma; 50 mg/kg/day): 47 days; Activity: mean time to death (HsSultan B-cell lymphoma; 200 mg/kg/day): 47 days; antitumor activity compared among the enantiomeric preparations of 4-amino thalidomide (HsSultan B-cell lymphoma; summary of Table 1): most active enantiomer; difference in bFGF induced neovascularization versus control [2]: significant

What does the source list for `Nc1cccc2c1C(=O)N([C@@H]1CCC(=O)NC1=O)C2=O` [R(+)-4-amino-thalidomide]?
anti-cellular proliferation activity (XTT, treatment over control) (HS-Sultan cells): show anti-cellular proliferation activity; Activity: weight gain of lung (Lewis lung carcinoma): 0.42 g; Activity: mean time to death (HsSultan B-cell lymphoma; 50 mg/kg/day): 37 days; Activity: mean time to death (HsSultan B-cell lymphoma; 200 mg/kg/day): 31 days
